Assay results reported in patent US7803992B2, “Methods and compositions for expressing an herbicide-tolerant polynucleotide” (Pioneer Hi-Bred International, Inc., priority 2005, dated 2010).

Columns and labels:
[1] = tested on: parent elite stiff stalk inbred corn; assay: Postemergence herbicide application in greenhouse: fresh shoot weight and visual injury; assay type: in vivo; conditions: for pest or weed control at 200 g/ha: Zea mays, post-emergence, read-out: % Visual Injury; for Fresh Weight: weighed 2 weeks after treatment, untreated 76.4 g
[2] = tested on: Heterozygous GAT-HRA corn; assay: as above; assay type: in vivo; conditions: for pest or weed control at 200 g/ha: Zea mays, post-emergence, read-out: % Visual Injury; for Fresh Weight: weighed 2 weeks after treatment, untreated 98.8 g
control maize = assay: Evaluation of herbicide tolerance, spray at V2 stage, injury symptoms after 10-14 days; assay type: in vivo; conditions: postemergence; tribenuron (Express) 200, chlorimuron (Classic) 200, imazapyr (Arsenal) 200, metsulfuron-methyl (Ally) 35 g ai/ha
Description: At the V2 stage (Ritchie and Hanway (1982), “How a corn plant develops” Spec. Rep. 48. (Coop. Ext. Ser., Iowa State Univ., Ames, Iowa)), plant heights were measured and herbicides were applied by spray application. Ten to fourteen days after the spray application, the transgenic plants were evaluated for injury symptoms and measured for plant height again in order to determine plant growth rates.

GAT-HRA maize = assay: as above; assay type: in vivo; conditions: postemergence; tribenuron (Express) 200, chlorimuron (Classic) 200, imazapyr (Arsenal) 200, metsulfuron-methyl (Ally) 35 g ai/ha
Description: GAT-HRA maize plants were evaluated for tolerance to glyphosate and other herbicides. One protocol used in this evaluation was as follows. At the V2 stage (Ritchie and Hanway (1982), “How a corn plant develops” Spec. Rep. 48. (Coop. Ext. Ser., Iowa State Univ., Ames, Iowa)), plant heights were measured and herbicides were applied by spray application. Ten to fourteen days after the spray application, the transgenic plants were evaluated for injury symptoms and measured for plant height again in order to determine plant growth rates.
Plants were then evaluated at various times after treatment, such as 10 or 14 days after treatment.

[3] = tested on: Heterozygous GAT-HRA corn; assay: Preemergence herbicide application in greenhouse: fresh shoot weight and visual injury; assay type: in vivo; conditions: for pest or weed control at 200 g/ha: Zea mays, pre-emergence, 672 h, read-out: % Visual Injury; for Fresh Weight: fresh shoots weighed 4 weeks after treatment, untreated 47.0 g
[4] = tested on: parent elite stiff stalk inbred corn; assay: as above; assay type: in vivo; conditions: for pest or weed control at 200 g/ha: Zea mays, pre-emergence, 672 h, read-out: % Visual Injury; for Fresh Weight: fresh shoots weighed 4 weeks after treatment, untreated 36.7 g
GAT-HRA soybeans = assay: Postemergence herbicide treatment of soybeans in greenhouse, visual injury; assay type: in vivo, soybean; conditions: for % Visual Injury: postemergence, glyphosate 8960, tribenuron-methyl 35, rimsulfuron 35 g/ha
Description: (§1) Young regenerated transgenic plants were sprayed with 1× glyphosate (1× rate of glyphosate is 1120 g/ha of glyphosate isopropylamine) to cull segregants. Four replications were performed for each treatment. Plants were then treated with various herbicides, including glyphosate and ALS-inhibitor herbicides.
(§2) Six soybean seeds from each variety to be assayed were planted 1 cm deep in 5.5 (13.97 cm) inch square plastic container of a synthetic growth medium. […] When possible, containers were thinned to two uniform plants. Non-transgenic lines were thinned to two uniform plants per container.
(§3) Results are expressed below in Table 11 as the mean of four replications.

[5] = tested on: Wild Type soybeans (Jack); assay: as above; assay type: in vivo, soybean; conditions: for % Visual Injury: postemergence, glyphosate 8960, tribenuron-methyl 35, rimsulfuron 35 g/ha
Description: as §1, §2, §3

STS ® soybeans = assay: as above; assay type: in vivo, soybean
Text: When possible, containers were thinned to two uniform plants.

[6] = postemergence, 200 g/ha (glyphosate 3472 g ae/ha, glufosinate ammonium 1870 g/ha), mean of four replications
[7] = preemergence, 200 g/ha, mean of four replications
[8] = postemergence, 200 g/ha (glyphosate 3472 g ae/ha, glufosinate ammonium 1870 g/ha), 0% no injury, 100% plant death, mean of four replications
[9] = preemergence, 200 g/ha, 0% no injury, 100% plant death, mean of four replications

SMILES: CCOC(=O)c1ccccc1S(=O)(=O)NC(=O)Nc1nc(Cl)cc(OC)n1 [Chlorimuron-ethyl]
- pest or weed control at 200 g/ha ([1]; […]): 93%
- Fresh Weight [1, 6]: 10.1 g
- pest or weed control at 200 g/ha ([2]; […]): 15%
- Fresh Weight [2, 6]: 95.5 g
- damage from the treatment (control maize): severely damaged or killed
- damage from the treatment (GAT-HRA maize): no significant damage
- pest or weed control at 200 g/ha [3]: 10%
- Fresh Weight [3, 7]: 39.4 g
- pest or weed control at 200 g/ha [4]: 100%
- Fresh Weight [4, 7]: 9.3 g

SMILES: CC(C)C1(C)N=C(c2ncccc2C(=O)O)NC1=O (centres unmarked) [Imazapyr]
- pest or weed control at 200 g/ha [1, 8]: 100%
- Fresh Weight [1, 6]: 2.3 g
- pest or weed control at 200 g/ha [2, 8]: 1%
- Fresh Weight [2, 6]: 97.8 g
- damage from the treatment (control maize): severely damaged or killed
- damage from the treatment (GAT-HRA maize): no significant damage
- pest or weed control at 200 g/ha [3, 9]: 30%
- Fresh Weight [3, 7]: 44.2 g
- pest or weed control at 200 g/ha [4, 9]: 99%
- Fresh Weight [4, 7]: 0.3 g

SMILES: COC(=O)c1ccccc1S(=O)(=O)NC(=O)Nc1nc(C)nc(OC)n1 [Metsulfuron-methyl]
- pest or weed control at 200 g/ha [1, 8]: 100%
- Fresh Weight [1, 6]: 1.9 g
- pest or weed control at 200 g/ha [2, 8]: 14%
- Fresh Weight [2, 6]: 75.5 g
- damage from the treatment (control maize): severely damaged or killed
- damage from the treatment (GAT-HRA maize): no significant damage
- pest or weed control at 200 g/ha [3, 9]: 0%
- Fresh Weight [3, 7]: 41.1 g
- pest or weed control at 200 g/ha [4, 9]: 100%
- Fresh Weight [4, 7]: 0.0 g

SMILES: COC(=O)c1ccccc1S(=O)(=O)NC(=O)N(C)c1nc(C)nc(OC)n1 [Tribenuron-methyl]
- pest or weed control at 200 g/ha [1, 8]: 100%
- Fresh Weight [1, 6]: 1.8 g
- pest or weed control at 200 g/ha [2, 8]: 8%
- Fresh Weight [2, 6]: 90.8 g
- damage from herbicide treatment (GAT-HRA soybeans; 35 g/ha, four replications): no significant damage
- % Visual Injury (GAT-HRA soybeans; event 59, mean): 59%
- % Visual Injury (GAT-HRA soybeans; event 59 line 21): 58%
- % Visual Injury (GAT-HRA soybeans; event 59 line 28): 60%
- % Visual Injury (GAT-HRA soybeans; event 60, mean): 55%
- % Visual Injury (GAT-HRA soybeans; event 60 line 07): 46%
- % Visual Injury (GAT-HRA soybeans; event 60 line 11): 71%
- % Visual Injury (GAT-HRA soybeans; event 60 line 22): 45%
- % Visual Injury (GAT-HRA soybeans; event 60 line 35): 49%
- % Visual Injury (GAT-HRA soybeans; event 60 line 41): 38%
- % Visual Injury (GAT-HRA soybeans; event 60 line 46): 49%
- % Visual Injury (GAT-HRA soybeans; event 60 line 70): 40%
- % Visual Injury (GAT-HRA soybeans; event 60 line 75): 69%
- % Visual Injury (GAT-HRA soybeans; event 60 line 77): 56%
- % Visual Injury (GAT-HRA soybeans; event 60 line 79): 69%
- % Visual Injury (GAT-HRA soybeans; event 60 line 82): 61%
- % Visual Injury (GAT-HRA soybeans; event 60 line 84): 71%
- % Visual Injury (GAT-HRA soybeans; event 61, mean): 54%
- % Visual Injury (GAT-HRA soybeans; event 61 line 02): 41%
- % Visual Injury (GAT-HRA soybeans; event 61 line 02B): 40%
- % Visual Injury (GAT-HRA soybeans; event 61 line 05): 55%
- % Visual Injury (GAT-HRA soybeans; event 61 line 14): 65%
- % Visual Injury (GAT-HRA soybeans; event 61 line 18): 69%
- % Visual Injury (GAT-HRA soybeans; event 61 line 24): 63%
- % Visual Injury (GAT-HRA soybeans; event 61 line 33): 80%
- % Visual Injury (GAT-HRA soybeans; event 61 line 34): 76%
- % Visual Injury (GAT-HRA soybeans; event 61 line 47): 36%
- % Visual Injury (GAT-HRA soybeans; event 61 line 49): 54%
- % Visual Injury (GAT-HRA soybeans; event 61 line 51): 60%
- % Visual Injury (GAT-HRA soybeans; event 61 line 60): 45%
- % Visual Injury (GAT-HRA soybeans; event 61 line 62): 43%
- % Visual Injury (GAT-HRA soybeans; event 61 line 99): 34%
- % Visual Injury (GAT-HRA soybeans; event 64, mean): 43%
- % Visual Injury (GAT-HRA soybeans; event 64 line 41): 55%
- % Visual Injury (GAT-HRA soybeans; event 64 line 47): 34%
- % Visual Injury ([5]; Wild Type line 82): 97%
- % Visual Injury ([5]; Wild Type line Jack): 97%
- % Visual Injury ([5]; Wild Type, mean): 97%
- damage from herbicide treatment ([5]; herbicide-treated non-transgenic control soybeans, 35 g/ha): killed
- % Visual Injury (STS ® soybeans; STS ® line 25, glyphosate 8960, tribenuron-methyl 35, rimsulfuron 35 g/ha): 87%
- % Visual Injury (STS ® soybeans; STS ® line 46, glyphosate 8960, tribenuron-methyl 35, rimsulfuron 35 g/ha): 88%
- % Visual Injury (STS ® soybeans; STS ®, mean, glyphosate 8960, tribenuron-methyl 35, rimsulfuron 35 g/ha): 87%
- pest or weed control at 200 g/ha [3, 9]: 25%
- Fresh Weight [3, 7]: 46.8 g
- pest or weed control at 200 g/ha [4, 9]: 66%
- Fresh Weight [4, 7]: 32.1 g
